Where a name gives a salt, the structure may show the parent alone.

One series is described as follows: in vitro. In kind it is cell-based, Chinese hamster. The following applies: hamster, cho auxb1 cells.
Series [1] in a line: In vitro cytotoxicity / potentiation of Actinomycin D in human KB epidermoid carcinoma cells, drug resistant KB V-1 (MTT). The following applies: human, kb v-1 cells, fraction of untreated cultures, read-out: Cytotoxicity, normalized absorbance, Drug Resistant KB V-1, 0 (no Act D); for viability at 96 h, 1 µM: 1 μM potentiating agent alone; for viability at 96 h, 10 µM: 10 μM potentiating agent alone. The series is classed as cell-based.

For series [2], the system named is human KB epidermoid carcinoma cells, drug resistant KB V-1. The description is as above. The series is classed as cell-based. The following applies: 96 h, fraction of Act D alone.
In series [3] the test system is human KB epidermoid carcinoma cells, wildtype KB 3-1. Nature of the series: In vitro cytotoxicity / potentiation of Actinomycin D in human KB epidermoid carcinoma cells, wildtype KB 3-1 (MTT). Conditions: 96 h, fraction of Act D alone. The series is classed as cell-based.
Experiment in series [4]: as above
The series is classed as cell-based. The following applies: human, kb 3-1 cells, fraction of untreated cultures, read-out: Cytotoxicity, normalized absorbance, Wildtype KB 3-1, 0 (no Act D); for viability at 96 h, 1 µM: 1 μM potentiating agent alone; for viability at 96 h, 10 µM: 10 μM potentiating agent alone.

In series [5] the test system is Chinese hamster ovary (CHO) cells, drug resistant C5S32. Nature of the series: In vitro cytotoxicity / potentiation of Actinomycin D in Chinese hamster ovary cells, drug resistant C5S32 (MTT). The series is classed as cell-based. Conditions: 96 h, fraction of Act D alone (1.00).
Experiment in series [6]: as above
The series is classed as cell-based. The following applies: hamster, cho c5s32 cells, fraction of untreated cultures (1.00), read-out: Cytotoxicity, normalized absorbance, Drug Resistant C5S32, 0 (no Act D); for viability at 96 h, 1 µM: 1 μM potentiating agent alone; for viability at 96 h, 10 µM: 10 μM potentiating agent alone.

[7] abbreviates: 1 μM potentiating agent + Act D 20 nM.
Setting [8] is: 10 μM potentiating agent + Act D 20 nM.
Where [9] appears, read: 1 μM potentiating agent + Act D 0.1 nM.
[10] abbreviates: 10 μM potentiating agent + Act D 0.1 nM.
The mark [11] stands for this setting: 1 μM potentiating agent + Act D 0.5 μM.
Where [12] appears, read: 10 μM potentiating agent + Act D 0.5 μM.

Turning to `CN(C)CC/C=C1/c2ccccc2COc2ccc(Br)cc21.Cl.Cl.Cl` [(A), (Z)-3-(2-Bromo-6,11-dihydrodibenz [b,e]oxepin-11-ylidene)-N,N-dimethylpropylamine trihydrochloride], the viability at 96 h, 1 µM was determined as 100% in the series “in vitro”, 100% in series [1], 99% in series [4] and 85% in series [6]. Besides, the viability at 96 h, 10 µM in the series “in vitro” came out at 100%; in series [1], 75%; in series [4] it was 98%; in series [6] it was 42%. In addition, the “Synergism with Actinomycin D, normalized absorbance, Drug Resistant KB V-1, +ACT D” value in series [2] (setting [7]) turned out to be 0.99; in series [2] (setting [8]), 0.21. Also, the “Synergism with Actinomycin D, normalized absorbance, Wildtype KB 3-1, +ACT D” value is 0.88 in series [3] (setting [9]) and 1.00 in series [3] (setting [10]). In addition, the “Synergism with Actinomycin D, normalized absorbance, Drug Resistant C5S32, +ACT D” value in series [5] (setting [11]) is 0.71; in series [5] (setting [12]), 0.22.

For `CN(C)CC/C=C1\c2ccccc2COc2ccc(Br)cc21` [(B), (E)-3-(2-Bromo-6,11-dihydrodibenz [b,e]oxepin-11-ylidene)-N,N-dimethylpropylamine 3/2 hydrochloride], the viability at 96 h, 1 µM in the series “in vitro” is 98%; in series [1] it was 100%; in series [4], 100%; in series [6], 83%. Besides, the viability at 96 h, 10 µM came to 87% in the series “in vitro”, 44% in series [1], 83% in series [4] and 55% in series [6]. Moreover, in series [2] (setting [8]), the “Synergism with Actinomycin D, normalized absorbance, Drug Resistant KB V-1, +ACT D” value was determined as 0.01. In addition, in series [3] (setting [10]), the “Synergism with Actinomycin D, normalized absorbance, Wildtype KB 3-1, +ACT D” value is listed as 0.91. For the same compound, the “Synergism with Actinomycin D, normalized absorbance, Drug Resistant C5S32, +ACT D” value is given as 0.82 in series [5] (setting [11]) and 0.37 in series [5] (setting [12]).

With `CN(C)CC/C=C1/c2cc(Br)ccc2COc2ccccc21` [(C), (Z)-3-(9-Bromo-6,11-dihydrodibenz [b,e]oxepin-11-ylidene)-N,N-dimethylpropylamine], the viability at 96 h, 1 µM (in the series “in vitro”; in series [1]; in series [4]; in series [6]) was 100% throughout. The viability at 96 h, 10 µM was 92% in “in vitro”, 34% in series [1], 100% in series [4] and 100% in series [6]. Also, the entries for the “Synergism with Actinomycin D, normalized absorbance, Drug Resistant KB V-1, +ACT D” value in series [2] (setting [7]) and in series [2] (setting [8]) were 0.97 and 0.36, respectively. The “Synergism with Actinomycin D, normalized absorbance, Wildtype KB 3-1, +ACT D” value in series [3] (setting [9]) is 0.78; in series [3] (setting [10]), 0.75. The figures for the “Synergism with Actinomycin D, normalized absorbance, Drug Resistant C5S32, +ACT D” value in series [5] (setting [11]) and in series [5] (setting [12]) were 0.90 and 0.54, respectively.

`CN(C)CC/C=C1/c2ccccc2COc2c(Br)cccc21` [(D), (Z)-3-(4-Bromo-6,11-dihydrodibenz [b,e]oxepin-11-ylidene)-N,N-dimethylpropylamine]: the viability at 96 h, 1 µM in the series “in vitro” amounted to 100%; in series [1], 75%; in series [4], 88%; in series [6], 89%. Further, the viability at 96 h, 10 µM in “in vitro” turned out to be 100%; in series [1], 36%; in series [4], 51%; in series [6] it was 34%. In addition, the “Synergism with Actinomycin D, normalized absorbance, Drug Resistant KB V-1, +ACT D” value in series [2] (setting [7]) is listed as 0.78; in series [2] (setting [8]) it was 0.01. Also, the “Synergism with Actinomycin D, normalized absorbance, Wildtype KB 3-1, +ACT D” value in series [3] (setting [9]) was 0.86; in series [3] (setting [10]), 0.65. In addition, the entries for the “Synergism with Actinomycin D, normalized absorbance, Drug Resistant C5S32, +ACT D” value in series [5] (setting [11]) and in series [5] (setting [12]) were 0.71 and 0.31, respectively.

For the compound `CN(C)CC/C=C1/c2ccccc2COc2cc(Br)ccc21` [(E)], the viability at 96 h, 1 µM in “in vitro” came out at 100%; in series [1] it was 88%; in series [4], 89%; in series [6], 85%. The viability at 96 h, 10 µM amounted to 100% in “in vitro”, 45% in series [1], 89% in series [4] and 48% in series [6]. Further, the “Synergism with Actinomycin D, normalized absorbance, Drug Resistant KB V-1, +ACT D” value was 0.74 in series [2] (setting [7]) and 0.01 in series [2] (setting [8]). Further, the “Synergism with Actinomycin D, normalized absorbance, Wildtype KB 3-1, +ACT D” value in series [3] (setting [9]) is given as 0.85; in series [3] (setting [10]) it was 0.77. Besides, the “Synergism with Actinomycin D, normalized absorbance, Drug Resistant C5S32, +ACT D” value in series [5] (setting [11]) was 0.66; in series [5] (setting [12]), 0.35.

For the compound `C(/CN1CCCC1)=C1\c2ccccc2COc2ccccc21` [(H), hydrochloride], the viability at 96 h, 1 µM in the series “in vitro” was 100%; in series [6], 82%. In addition, the results for the viability at 96 h, 10 µM (in the series “in vitro”; in series [6]) were 94% and 53%, respectively. The “Synergism with Actinomycin D, normalized absorbance, Drug Resistant C5S32, +ACT D” value in series [5] (setting [11]) came to 0.95; in series [5] (setting [12]) it was 0.51.

Take `Brc1ccc2c(c1)/C(=C/CCN1CCCC1)c1ccccc1OC2` [(M), (Z)-1-[3-(9-Bromo-6,11-dihydrodibenz [b,e]-oxepin-11-ylidene)propyl]pyrrolidine]: the viability at 96 h, 1 µM in the series “in vitro” worked out at 79%; in series [1], 95%; in series [4], 100%; in series [6], 86%. Moreover, the viability at 96 h, 10 µM in the series “in vitro” turned out to be 84%; in series [1], 65%; in series [4], 96%; in series [6], 100%. Besides, the “Synergism with Actinomycin D, normalized absorbance, Drug Resistant KB V-1, +ACT D” value in series [2] (setting [7]) turned out to be 1.00; in series [2] (setting [8]), 0.31. Further, the results for the “Synergism with Actinomycin D, normalized absorbance, Drug Resistant C5S32, +ACT D” value in series [5] (setting [11]) and in series [5] (setting [12]) were 0.83 and 0.35, respectively.

For `CCN(CC)CC/C=C1\c2ccccc2COc2ccc(Br)cc21` [(N), (E) -3-(2-Bromo-6,11-dihydrodibenz [b,e]oxepin-11-ylidene)-N, N-diethylpropylamine], the viability at 96 h, 1 µM in the series “in vitro” amounted to 86%; in series [6] it was 100%. Besides, the viability at 96 h, 10 µM in the series “in vitro” is 83%; in series [6], 80%. Moreover, the “Synergism with Actinomycin D, normalized absorbance, Drug Resistant C5S32, +ACT D” value in series [5] (setting [11]) stood at 0.85; in series [5] (setting [12]), 0.33.

In the case of `CN(C)CC/C=C1/c2cc(Br)ccc2COc2ccc(Br)cc21` [(U), (Z)-3-(2,9-Dibromo-6,11-dihydrodibenz [b,e]-oxepin-11-ylidene)-N,N-dimethylpropylamine], the viability at 96 h, 1 µM in “in vitro” was 84%; in series [6] it was 94%. The viability at 96 h, 10 µM in “in vitro” was 79%; in series [6], 74%. Besides, the “Synergism with Actinomycin D, normalized absorbance, Drug Resistant C5S32, +ACT D” value was determined as 0.93 in series [5] (setting [11]) and 0.24 in series [5] (setting [12]).

`CN(C)CC/C=C1\c2cc(Br)ccc2COc2ccc(Br)cc21` [(V), (E)-3-(2,9-Dibromo-6,11-dihydrodibenz [b,e]-oxepin-11-ylidene)-N,N-dimethylpropylamine]: the viability at 96 h, 1 µM in “in vitro” was 86%; in series [6], 91%. Besides, the results for the viability at 96 h, 10 µM (in the series “in vitro”; in series [6]) were 77% and 75%, respectively. In addition, the “Synergism with Actinomycin D, normalized absorbance, Drug Resistant C5S32, +ACT D” value stood at 0.87 in series [5] (setting [11]) and 0.20 in series [5] (setting [12]).

Consider `CN(C)CCC=C1c2ccccc2COc2ccccc21` [(W), doxepin, reference compound], for which the figures for the viability at 96 h, 1 µM (in “in vitro”; in series [6]) were 100% and 98%, respectively. Besides, the viability at 96 h, 10 µM in the series “in vitro” stood at 100%; in series [6] it was 55%. Moreover, the results for the “Synergism with Actinomycin D, normalized absorbance, Drug Resistant C5S32, +ACT D” value in series [5] (setting [11]) and in series [5] (setting [12]) were 0.86 and 0.48, respectively.

For the origin of these results see patent US5395610A, “Agents for potentiating the effects of antitumor agents and combating multiple drug resistance” (Burroughs-Wellcome Co., priority 1989, dated 1995).
